Key:
[1] = human psychoactivity, literature; cited from earlier work
SERT = SERT (Homo sapiens, UniProt P31645); conditions: functional assay; cited from earlier work
[2] = Metabolic stability in human liver microsomes; assay type: in vitro ADME
Source text: Purpose: To determine the metabolic stability of a disclosed compound relative to its corresponding non-fluorinated analog. Metabolic stability assays measure the intrinsic clearance (CLint) of a compound, providing critical data needed to calculate other key pharmacokinetic parameters such as bioavailability and half-life (t1/2).
Methods: A high-throughput assay was used to determine metabolic stability of disclosed compounds and non-fluorinated analogs thereof in human liver microsomes. LC/MS analysis was used to quantify the percent compound remaining after incubation. The half-life (t1/2) was estimated from the slope of the initial linear range of the logarithmic curve of compound remaining (%) versus time, assuming first order kinetics.

SERT, sequence (P31645 whole entry, species assumed): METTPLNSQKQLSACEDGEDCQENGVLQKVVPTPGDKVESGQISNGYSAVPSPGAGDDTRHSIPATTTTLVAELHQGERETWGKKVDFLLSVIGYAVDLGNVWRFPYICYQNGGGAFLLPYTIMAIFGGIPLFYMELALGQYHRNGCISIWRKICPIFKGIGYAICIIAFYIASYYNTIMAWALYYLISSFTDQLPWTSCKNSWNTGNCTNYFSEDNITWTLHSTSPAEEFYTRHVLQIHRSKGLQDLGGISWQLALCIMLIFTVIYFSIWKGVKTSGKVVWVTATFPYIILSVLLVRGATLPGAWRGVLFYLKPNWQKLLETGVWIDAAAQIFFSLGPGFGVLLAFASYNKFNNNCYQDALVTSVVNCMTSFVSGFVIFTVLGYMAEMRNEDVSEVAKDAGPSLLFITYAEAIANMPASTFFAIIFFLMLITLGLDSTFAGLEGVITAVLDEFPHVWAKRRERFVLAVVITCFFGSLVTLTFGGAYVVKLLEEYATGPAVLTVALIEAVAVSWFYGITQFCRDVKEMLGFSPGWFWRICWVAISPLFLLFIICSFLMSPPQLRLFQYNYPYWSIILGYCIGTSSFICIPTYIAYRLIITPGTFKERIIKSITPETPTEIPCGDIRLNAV

CC(N)Cc1ccc2c(c1)OC(F)(F)O2 (centres unmarked) [DiFMDA, Difluoromethylenedioxyamphetamine]
active dose in humans [1]: > 250 mg
SERT affinity (SERT): between that of MDA and MDMA

CC(N)Cc1ccc2c(c1)OCO2 (centres unmarked) [MDA, 3,4-methylenedioxyamphetamine]
active dose in humans [1]: 80 to 160 mg

CC(Cc1ccc2c(c1)OCO2)NCCF.Cl (centres unmarked) [MDEA-F]
percent compound remaining ([2]; Time 0.0): 100.0%
percent compound remaining ([2]; Time 15.00): 81.80%
percent compound remaining ([2]; Time 30.00): 68.75%
percent compound remaining ([2]; Time 45.00): 65.35%
percent compound remaining ([2]; Time 60.00 (one hour of incubation), listed as ASR-1004): 42.05%
percent compound remaining ([2]; Time 60.00 (one hour of incubation), listed as MIDEA-F): 42%
half-life (t1/2) ([2]; estimated from slope of log % remaining versus time): about 57 minutes

CC(Cc1ccc2c(c1)OCO2)NCC(F)(F)F (centres unmarked) [MDTFEA, 3,4-methylenedioxy-N-trifluoroethylamphetamine]
active dose in humans [1]: > 500 mg

From patent US12180176B2, “Fluorinated empathogens” (priority 2021, dated 2024)
